In US4621076A, “Pharmaceutical composition useful for inhibiting platelet aggregation” (Meito Sangyo Kabushiki Kaisha, priority 1982, dated 1986):
Where a name gives a salt, the structure may show the parent alone.

Key:
[1] = tested on: thrombin-induced platelet aggregation; experiment: Inhibitory effect on thrombin-induced platelet aggregation in vitro, Table 2; format: cell-based, human (healthy person)
Description: Blood was drawn from the cubital vein of a healthy person with a care taken to avoid congestion. […] 0.1 ml of a solution of 5'-GMP sodium salt in each of the concentrations shown in Table 1 below was added to 0.7 ml of PRP, and then each of the various platelet aggregation inducing agents shown in Table 1 was added. Changes in absorbance were measured by an aggregometer (made by Evans Company), and the rate of platelet aggregation inhibition was calculated from the following equation.
The same experiment as in (1) above was carried out except that […] of thrombin was used as a platelet aggregation inducing agent.

platelet aggregation [2] = conditions: cited from earlier work
[3] = tested on: 5'-ADP-induced platelet aggregation; conditions: at high concentrations; cited from earlier work
[4] = tested on: thrombin-induced platelet aggregation; experiment: Thrombin-induced platelet aggregation (inventors' test of 5'-GDP); format: cell-based; conditions: tests conducted by the present inventors
[5] = tested on: platelet aggregation induced by collagen; experiment: Inhibition of collagen-induced platelet aggregation in vitro (method of Born, human PRP, aggregometer); format: cell-based, human (healthy person); conditions: collagen 5.5 γ/ml, read-out: Rate of inhibition (%)
Description: (§1) (1) Inhibitory effect of GMP on platelet aggregation induced by various platelet aggregation inducing substances:
(§2) The inhibitory effect was measured by the method of Born (J. Physiol., vol. 168, p. 178, 1963).
(§3) Blood was drawn from the cubital vein of a healthy person with a care taken to avoid congestion. One part by volume of a 3.8% sodium citrate solution was added to 9 parts by volume of the blood, and the mixture was centrifuged at 1,000 rpm for 10 minutes at room temperature to obtain platelet-rich plasma (PRP). 0.1 ml of a solution of 5'-GMP sodium salt in each of the concentrations shown in Table 1 below was added to 0.7 ml of PRP, and then each of the various platelet aggregation inducing agents shown in Table 1 was added. Changes in absorbance were measured by an aggregometer (made by Evans Company), and the rate of platelet aggregation inhibition was calculated from the following equation.

[6] = Acute toxicity in mice (Litchfield-Wilcoxon); design: species or system mouse (ddY-strain); conditions: mouse, in vivo, ddY mice, parentheses: 95% reliability limits
Description: The acute toxicity of the compound of formula (I) in accordance with this invention was examined.
The test compound (guanosine 5'-monophosphate sodium salt) was dissolved in physiological saline, and the solution was administered to ddY-strain mice (body weight 20 to 25 g) intravenously or orally.
The parenthesized figures show 95% reliability limits.

platelet aggregation [7] = experiment: Relation between dose of GMP and aggregation inhibiting effect in rabbits in vivo; conditions: rabbit, one hour after administration
Description: (§4) 5'-GMP sodium salt was administered to rabbits intravenously in a dose of 50 mg/kg or orally in a dose of 1 g/kg. After a predetermined period of time (30 seconds to 4 minutes in the case of intravenous injection, and 1 to 5 hours in oral administration), blood was drawn from the animals. One part by volume of a 3.8% solution of sodium citrate was added to 9 parts by volume of the blood, and the mixture was centrifuged at 1,000 rpm at room temperature for 10 minutes to obtain platelet-rich plasma (PRP). 0.1 ml of a thrombin solution (0.75 u/ml) was added to 0.7 ml of PRP, and then changes in absorbance were measured by an aggregometer (made by Evans Company).
(2) Relation between the dose of GMP and the aggregation inhibiting effect.
Using rabbits, the dose response of the platelet aggregation inhibiting activity of 5'-GMP (sodium salt) in vivo was examined. 5'-GMP (sodium salt) was orally administered to the rabbits, and blood was drawn from the animals one hour after the administration. PRP was prepared in the same way as in section (1) above. The degree of platelet aggregation inhibition was measured by an aggregometer.

[8] = tested on: platelet aggregation induced by norepinephrine; experiment: Inhibition of norepinephrine-induced platelet aggregation in vitro (method of Born, human PRP, aggregometer); format: cell-based, human (healthy person); conditions: norepinephrine 55.5 γ/ml, sample 1.00 mg/ml, read-out: Rate of inhibition (%)
Description: as §1, §2, §3

[9] = tested on: platelet aggregation induced by 5'-ADP; experiment: Inhibition of 5'-ADP-induced platelet aggregation in vitro (method of Born, human PRP, aggregometer); format: cell-based, human (healthy person); conditions: 5'-ADP 55.5 γ/ml, read-out: Rate of inhibition (%)
Description: as §1, §2, §3

[10] = tested on: platelet aggregation induced by arachidonic acid; experiment: Inhibition of arachidonic acid-induced platelet aggregation in vitro (method of Born, human PRP, aggregometer); format: cell-based, human (healthy person); conditions: arachidonic acid 55.5 γ/ml, read-out: Rate of inhibition (%)
Description: as §1, §2, §3

[11] = tested on: platelet aggregation (thrombin-induced); experiment: Inhibitory effect on platelet aggregation in humans in vivo (thrombin added to PRP); design: species or system human (healthy persons); conditions: for Rate of platelet aggregation inhibition (%): five healthy persons, oral one gram
Description: (4) Inhibitory effect on platelet aggregation in humans in vivo:
One gram of 5'-GMP (sodium salt) was administered orally to each of five healthy persons, and blood was drawn from them after a predetermined period of time. One part by volume of a 3.8% aqueous solution of sodium citrate was added to 9 parts by volume of the blood, and the mixture was centrifuged at room temperature for 10 minutes at 1,000 rpm to obtain platelet-rich plasma (PRP). 0.1 ml of a thrombin solution (0.75 u/ml) was added to 0.7 ml of PRP, and changes in absorbance were measured by an aggregometer (made by Evans Company).

[12] = tested on: platelet aggregation (thrombin-induced); experiment: Duration of the platelet aggregation inhibiting effect in vivo in rabbits (thrombin added to PRP); conditions: rabbit
Description: (3) Inhibitory effect on platelet aggregation in vivo:
(1) Duration of the aggregation inhibiting effect.
as §4

[13] = tested on: platelet aggregation induced by thrombin; experiment: Inhibition of thrombin-induced platelet aggregation in vitro, Table 1 (method of Born, human PRP, aggregometer); format: cell-based, human (healthy person)
Description: as §1, §2, §3

[14] = tested on: platelet aggregation induced by various platelet aggregation inducing substances; experiment: Inhibition of platelet aggregation induced by various platelet aggregation inducing substances; format: cell-based, human (healthy person); conditions: Table 1
Description: as §1, §2, §3

Nc1nc2c(ncn2[C@@H]2O[C@H](CO)[C@@H](OP(=O)(O)O)[C@H]2O)c(=O)[nH]1 [3'-GMP (sodium salt), Guanosine 3'-monophosphate]
inhibition at 2000 µg/mL ([1]; Homo sapiens, Platelet, thrombin 0.25 μ/ml, compound 2.0 mg/ml, read-out: Inhibition rate (%)): 87%
Inhibition rate (%) ([1]; thrombin 0.25 μ/ml, compound 2.0 mg/ml): 80%

Nc1ncnc2c1ncn2[C@@H]1O[C@H](COP(=O)(O)OP(=O)(O)O)[C@@H](O)[C@H]1O [5'-ADP, adenosine 5'-diphosphate]
action on platelet aggregation (platelet aggregation [2]): promoting platelet aggregation

Nc1ncnc2c1ncn2[C@@H]1O[C@H](COP(=O)(O)O)[C@@H](O)[C@H]1O [5'-AMP, adenosine 5'-monophosphate]
action on platelet aggregation (platelet aggregation [2]): weak action of inhibiting platelet aggregation

Nc1nc2c(ncn2[C@@H]2O[C@H](COP(=O)(O)OP(=O)(O)O)[C@@H](O)[C@H]2O)c(=O)[nH]1 [5'-GDP, guanosine 5'-diphosphate]
inhibitory action on 5'-ADP-induced platelet aggregation [3]: inhibitory action on 5'-ADP-induced platelet aggregation
inhibitory action on thrombin-induced platelet aggregation [4]: no inhibitory action on thrombin-induced platelet aggregation

Nc1nc2c(ncn2[C@@H]2O[C@H](COP(=O)([O-])[O-])[C@@H](O)[C@H]2O)c(=O)[nH]1.[Na+].[Na+] [5'-GMP (sodium salt), guanosine 5'-monophosphate sodium salt]
inhibition at 100 µg/mL (stock) ([5]; sample 0.10 mg/ml): 10%
inhibition at 1000 µg/mL (stock) ([5]; sample 1.00 mg/ml): 10%
inhibition at 500 µg/mL ([1]; Homo sapiens, Platelet, read-out: Inhibition rate (%), thrombin 0.25 μ/ml, compound 0.5 mg/ml): 75%
inhibition at 1000 µg/mL ([1]; Homo sapiens, Platelet, thrombin 0.25 μ/ml, compound 1.0 mg/ml, read-out: Inhibition rate (%)): 81%
LD50 at 72 h ([6]; iv): 3350 mg/kg
LD50 at 72 h ([6]; po): 14800 mg/kg
Rate of platelet aggregation inhibition (%) (platelet aggregation [7]; oral 0.5 g/kg): 38.8%
Rate of platelet aggregation inhibition (%) (platelet aggregation [7]; oral 1.0 g/kg): 61.0%
Rate of platelet aggregation inhibition (%) (platelet aggregation [7]; oral 1.5 g/kg): 75.2%
Rate of platelet aggregation inhibition (%) (platelet aggregation [7]; oral 2.0 g/kg): 80.3%
Rate of platelet aggregation inhibition (%) (platelet aggregation [7]; oral 3.0 g/kg): 100%
inhibition at 1000 µg/mL (stock) [8]: 8%
inhibition at 100 µg/mL (stock) ([9]; sample 0.10 mg/ml): 3%
inhibition at 1000 µg/mL (stock) ([9]; sample 1.00 mg/ml): 10%
inhibition at 10 µg/mL (stock) ([10]; sample 0.01 mg/ml): 22%
inhibition at 1000 µg/mL (stock) ([10]; sample 1.00 mg/ml): 40%
Rate of platelet aggregation inhibition (%) ([11]; 1.5 hours): 63%
Rate of platelet aggregation inhibition (%) ([11]; 3 hours): 75%
Rate of platelet aggregation inhibition (%) ([11]; 4.5 hours): 62%
Rate of platelet aggregation inhibition (%) ([12]; iv 50 mg/kg, 30 seconds): 94%
Rate of platelet aggregation inhibition (%) ([12]; iv 50 mg/kg, 60 seconds): 93%
Rate of platelet aggregation inhibition (%) ([12]; iv 50 mg/kg, 90 seconds): 59%
Rate of platelet aggregation inhibition (%) ([12]; iv 50 mg/kg, 120 seconds): 60%
Rate of platelet aggregation inhibition (%) ([12]; iv 50 mg/kg, 180 seconds): 62%
Rate of platelet aggregation inhibition (%) ([12]; iv 50 mg/kg, 240 seconds): 27%
Rate of platelet aggregation inhibition (%) ([12]; oral 1 g/kg, 1 hour): 95%
Rate of platelet aggregation inhibition (%) ([12]; oral 1 g/kg, 2 hours): 95%
Rate of platelet aggregation inhibition (%) ([12]; oral 1 g/kg, 3 hours): 93%
Rate of platelet aggregation inhibition (%) ([12]; oral 1 g/kg, 4 hours): 93%
Rate of platelet aggregation inhibition (%) ([12]; oral 1 g/kg, 5 hours): 83%
inhibition at 100 µg/mL ([13]; Homo sapiens, Platelet, read-out: Rate of inhibition (%)): 66%
inhibition at 1000 µg/mL (stock) ([13]; Homo sapiens, Platelet, thrombin 0.5 μ/ml, sample 1.0 mg/ml, read-out: Rate of inhibition (%)): 80%
inhibition at 10000 µg/mL (stock) ([13]; Homo sapiens, Platelet, thrombin 0.5 μ/ml, sample 10.0 mg/ml, read-out: Rate of inhibition (%)): 89%

Nc1nc2c(ncn2[C@@H]2O[C@H](COP(=O)(O)O)[C@@H](O)[C@H]2O)c(=O)[nH]1 [5'-GMP, Guanosine 5'-monophosphate]
inhibitory effect on aggregation inducing agents [14]: shows an inhibitory effect on all of the aggregation inducing agents tested
duration of effect ([11]; humans, oral administration): ≥ 4.5 h
duration of effect ([12]; oral administration): ≥ 5 h
inhibition of platelet aggregation ([12]; oral administration): marked inhibition of platelet aggregation
effect against thrombin-induced aggregation ([13]; Table 1): especially effective against thrombin-induced aggregation
